# Source: ChEMBL document CHEMBL1134928, “Synthesis and evaluation of potent pyrrolidine H(3) antagonists” (Bioorg Med Chem Lett, 2002)
# Assays:
# Histamine H3 receptor [1] = biological target: T1, Histamine H3 receptor (Rattus norvegicus, UniProt Q9QYN8); assay: Binding affinity against rat histamine H3 receptor
# Histamine H1 receptor [2] = biological target: T2, Histamine H1 receptor (Homo sapiens, UniProt P35367); assay: Binding affinity to the human Histamine H1 receptor
# Histamine H2 receptor [3] = biological target: T3, Histamine H2 receptor (Homo sapiens, UniProt P25021); assay: Binding affinity to the human Histamine H2 receptor
# Histamine H2 receptor [4] = biological target: T3, Histamine H2 receptor; assay: Binding affinity towards human Histamine H2 receptor (For compound 11)
# Histamine H3 receptor [5] = biological target: T1, Histamine H3 receptor; assay: Binding affinity towards rat Histamine H3 receptor (For compound 11)
# Histamine H1 receptor [6] = biological target: T2, Histamine H1 receptor; assay: Binding affinity towards human Histamine H1 receptor (For compound 11)
# Histamine H3 receptor [7] = biological target: T1, Histamine H3 receptor; assay: Binding affinity towards rats Histamine type 3 (H3) receptor
# T1 sequence (Q9QYN8 whole entry): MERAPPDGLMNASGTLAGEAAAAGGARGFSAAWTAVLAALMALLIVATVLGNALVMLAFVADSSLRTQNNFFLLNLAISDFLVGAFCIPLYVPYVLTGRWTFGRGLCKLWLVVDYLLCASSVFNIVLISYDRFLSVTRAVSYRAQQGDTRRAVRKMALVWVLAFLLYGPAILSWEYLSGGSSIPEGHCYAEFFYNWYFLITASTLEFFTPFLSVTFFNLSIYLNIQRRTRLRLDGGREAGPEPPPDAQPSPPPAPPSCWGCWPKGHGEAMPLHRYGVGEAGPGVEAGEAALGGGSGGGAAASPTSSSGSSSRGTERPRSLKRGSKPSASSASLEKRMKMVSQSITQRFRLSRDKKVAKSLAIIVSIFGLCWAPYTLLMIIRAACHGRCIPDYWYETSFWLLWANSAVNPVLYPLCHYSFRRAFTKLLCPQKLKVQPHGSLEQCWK
# T2 sequence (P35367 whole entry): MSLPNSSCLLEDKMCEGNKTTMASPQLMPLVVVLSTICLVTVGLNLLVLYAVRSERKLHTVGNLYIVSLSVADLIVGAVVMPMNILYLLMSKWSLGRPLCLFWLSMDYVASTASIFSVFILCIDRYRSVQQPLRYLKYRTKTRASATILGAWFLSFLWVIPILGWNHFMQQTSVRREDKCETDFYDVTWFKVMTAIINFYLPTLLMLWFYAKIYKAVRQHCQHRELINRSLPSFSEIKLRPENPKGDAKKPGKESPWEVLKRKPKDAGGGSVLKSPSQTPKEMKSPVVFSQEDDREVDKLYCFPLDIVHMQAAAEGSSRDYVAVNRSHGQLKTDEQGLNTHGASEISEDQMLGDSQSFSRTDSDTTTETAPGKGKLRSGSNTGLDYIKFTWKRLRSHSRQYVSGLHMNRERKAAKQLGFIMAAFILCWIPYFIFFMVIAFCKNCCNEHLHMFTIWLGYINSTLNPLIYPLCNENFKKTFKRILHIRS
# T3 sequence (P25021 whole entry): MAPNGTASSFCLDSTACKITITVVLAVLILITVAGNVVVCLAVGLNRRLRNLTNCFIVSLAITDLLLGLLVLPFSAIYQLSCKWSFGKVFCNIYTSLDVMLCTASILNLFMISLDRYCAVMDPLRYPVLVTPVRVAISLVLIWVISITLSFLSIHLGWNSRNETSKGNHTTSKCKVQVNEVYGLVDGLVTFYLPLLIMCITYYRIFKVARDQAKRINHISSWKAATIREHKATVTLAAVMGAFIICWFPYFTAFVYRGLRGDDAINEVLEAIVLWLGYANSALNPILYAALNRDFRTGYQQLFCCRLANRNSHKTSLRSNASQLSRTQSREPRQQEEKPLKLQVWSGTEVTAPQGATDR
Ki (Histamine H3 receptor [1]) [µM],Ki (Histamine H1 receptor [2]) [µM],Ki (Histamine H2 receptor [3]) [µM],also measured,Compound
0.055,11,6.2,–,CC(=O)c1ccc(OCCCN2CC[C@H](NC(=O)c3csc(-c4cccnc4)n3)C2)cc1
0.003,9.1,1.2,–,O=C(c1ccc(OCCCN2CC[C@H](NS(=O)(=O)c3ccccc3)C2)cc1)C1CC1
0.0028,8.9,0.9,–,N#Cc1cccc(S(=O)(=O)N[C@H]2CCN(CCCOc3ccc(C(=O)C4CC4)cc3)C2)c1
0.12,–,–,–,CCS(=O)(=O)N1C[C@@H]2C[C@H]1CN2CCCOc1ccc(C(=O)C2CC2)cc1
–,7.4,3.5,–,CC(=O)c1ccc(OCCCN2CC[C@H](NC(=O)c3cccnc3)C2)cc1
–,4.5,1,–,O=C(c1ccc(OCCCN2CC[C@H](NS(=O)(=O)c3ccccc3Cl)C2)cc1)C1CC1
0.31,80,100,–,CC(=O)c1ccc(OCCCN2CC[C@H](NC(=O)[C@@H](CO)NC(=O)OC(C)(C)C)C2)cc1
0.019,–,–,–,O=C(c1ccc(OCCCN2C[C@@H]3C[C@H]2CN3S(=O)(=O)c2ccccc2)cc1)C1CC1
0.006,14,2.3,–,CC(=O)c1ccc(OCCCN2CC[C@H](NS(=O)(=O)c3ccc(C#N)cc3)C2)cc1
0.208,–,–,–,O=C(c1ccc(OCCCN2C[C@@H]3C[C@H]2CN3C(=O)c2ccco2)cc1)C1CC1
0.0046,2.3,0.33,–,CCc1ccc(S(=O)(=O)N[C@H]2CCN(CCCOc3ccc(C(=O)C4CC4)cc3)C2)cc1
0.011,16,2.2,–,Cc1ccccc1S(=O)(=O)N[C@H]1CCN(CCCOc2ccc(C(=O)C3CC3)cc2)C1
0.0027,6.6,1.8,–,Cc1cccc(S(=O)(=O)N[C@H]2CCN(CCCOc3ccc(C(=O)C4CC4)cc3)C2)c1
0.307,56,40,–,CC(=O)c1ccc(OCCCN2CC[C@H](NC(=O)[C@@H](C)NC(=O)OC(C)(C)C)C2)cc1
0.413,–,–,–,C[C@@H](NC(=O)N1C[C@@H]2C[C@H]1CN2CCCOc1ccc(C(=O)C2CC2)cc1)C(=O)O
0.0038,2.5,0.29,–,O=C(c1ccc(OCCCN2CC[C@H](NS(=O)(=O)c3ccc(Cl)cc3)C2)cc1)C1CC1
0.0027,9.4,1.55,–,O=C(c1ccc(OCCCN2CC[C@H](NS(=O)(=O)c3ccccc3F)C2)cc1)C1CC1
0.0035,9.2,0.5,–,O=C(c1ccc(OCCCN2CC[C@H](NS(=O)(=O)c3ccc(F)cc3)C2)cc1)C1CC1
0.0016,5.9,1.6,–,O=C(c1ccc(OCCCN2CC[C@H](NS(=O)(=O)c3cccc(F)c3)C2)cc1)C1CC1
0.151,43,22,–,CC(=O)c1ccc(OCCCN2CC[C@H](NC(=O)[C@@H](N)CO)C2)cc1
0.0052,2.3,0.73,–,CC(C)(C)c1ccc(S(=O)(=O)N[C@H]2CCN(CCCOc3ccc(C(=O)C4CC4)cc3)C2)cc1

Ki (Histamine H3 receptor [1]) [µM],Ki (Histamine H1 receptor [2]) [µM],Ki (Histamine H2 receptor [3]) [µM],also measured,Compound
0.191,–,–,–,O=C(c1ccc(OCCCN2C[C@@H]3C[C@H]2CN3C(=O)c2ccccn2)cc1)C1CC1
0.232,–,–,–,C[C@H](NC(=O)N1C[C@@H]2C[C@H]1CN2CCCOc1ccc(C(=O)C2CC2)cc1)C(=O)O
0.0029,4.4,1,–,COc1ccc(S(=O)(=O)N[C@H]2CCN(CCCOc3ccc(C(=O)C4CC4)cc3)C2)cc1
0.0042,5.5,0.38,–,Cc1ccc(S(=O)(=O)N[C@H]2CCN(CCCOc3ccc(C(=O)C4CC4)cc3)C2)cc1
0.004,20,1.6,–,N#Cc1ccc(S(=O)(=O)N[C@H]2CCN(CCCOc3ccc(C(=O)C4CC4)cc3)C2)cc1
0.017,–,–,–,O=C(O)CCNC(=O)N1C[C@@H]2C[C@H]1CN2CCCOc1ccc(C(=O)C2CC2)cc1
0.071,–,–,–,CC(C)(C)OC(=O)NCCC(=O)N1C[C@@H]2C[C@H]1CN2CCCOc1ccc(C(=O)C2CC2)cc1
0.587,75,46,–,CC(=O)c1ccc(OCCCN2CC[C@H](NC(=O)[C@H](CO)NC(=O)OC(C)(C)C)C2)cc1
0.344,–,–,–,O=C(c1ccc(OCCCN2C[C@@H]3C[C@H]2CN3C(=O)c2ccccc2)cc1)C1CC1
–,90,50,Ki (Histamine H2 receptor [4]): 31 µM; Ki (Histamine H3 receptor [5]): 0.676 µM; Ki (Histamine H1 receptor [6]): 100 µM,CC(=O)c1ccc(OCCCN2CC[C@H](N)C2)cc1
0.901,60,24,–,CC(=O)c1ccc(OCCCN2CC[C@H](NC(=O)[C@H](C)NC(=O)OC(C)(C)C)C2)cc1
0.258,–,–,–,O=C(c1ccc(OCCCN2C[C@@H]3C[C@H]2CN3C(=O)c2ccc(F)cc2)cc1)C1CC1
0.003,3.6,0.7,–,O=C(c1ccc(OCCCN2CC[C@H](NS(=O)(=O)c3cccc(Cl)c3)C2)cc1)C1CC1
0.005,1.5,0.29,–,O=C(c1ccc(OCCCN2CC[C@H](NS(=O)(=O)c3ccc(Br)cc3)C2)cc1)C1CC1
0.01,91,7.1,–,Cn1cnc(S(=O)(=O)N[C@H]2CCN(CCCOc3ccc(C(=O)C4CC4)cc3)C2)c1
0.202,10,5,–,CC(=O)c1ccc(OCCCN2CC[C@H](NC(=O)c3cnccn3)C2)cc1
0.05,37,4,–,O=C(N[C@H]1CCN(CCCOc2ccc(C(=O)C3CC3)cc2)C1)c1csc(-c2cccnc2)n1
0.134,–,–,–,O=C(c1ccc(OCCCN2C[C@@H]3C[C@H]2CN3C(=O)C2CCCCC2)cc1)C1CC1
0.011,6.2,0.71,–,N#Cc1ccccc1S(=O)(=O)N[C@H]1CCN(CCCOc2ccc(C(=O)C3CC3)cc2)C1
0.04,13,6.1,–,CC(=O)c1ccc(OCCCN2CC[C@H](NC(=O)c3ccc(C#N)cc3)C2)cc1
–,–,–,Ki (Histamine H3 receptor [7]): 0.002 µM,CCCCCC(=O)c1ccc(OCCCN2CCN(C(=O)OCC)CC2)cc1
